Patent US7186825B2, “Conformationally restricted polyamine analogs as disease therapies” (Cellgate, Inc., priority 1999, dated 2007)
pEC50, pIC50: −log10 of the molar value. Read-outs that look alike come from different tables or passages of the source.

What was measured:
Assay type in all cases: cell-based
[1] = test system: human prostate cancer cells PC3; experiment: MTT assay, survival/growth of cultured human prostate cancer cells PC3; details: for pEC50: figure legends, survival of cultured PC3 cells, MTT, six days after drug treatment, read-out: ED50 (the source's name); for pIC50: read-out: concentration needed for 50% growth inhibition (ID50), Table 3, PC-3
Experimental: (§1) Human breast cancer cell line MCF7 was grown in Richter's Improved Modified Eagle's Medium supplemented with 10% fetal bovine serum (FBS) and 2.2 g/L sodium bicarbonate. Human brain tumor cell line U251 MG-NCI was grown in Dulbecco's Modified Eagle's Medium supplemented with 10% FBS. Human lung cancer cell line A549 was grown in Ham's F-12K medium (Cellgro, Mediatech, Inc., VA), supplemented with 10% FBS and 2 mM L-glutamine. Human colon cancer cell line HT29 was cultured in McCoy's 5A medium (Gibco, BRL, Gaithersburg, Md.) supplemented with 10% FBS. Human prostate cancer cell lines PC-3, LNCAP and DuPro were grown in RPMI 1640 Medium (Cellgro, Mediatech, Inc., VA) supplemented with 10% FBS. Another human prostate cancer cell line DU145 was grown in Dulbecco's Modified Eagle's Medium (Gibco, BRL, Gaithersburg, Md.) supplemented with 5% FBS. The A549, MCF7, PC3, LNCAP and DuPro cell lines were cultured in 100 units/mL penicillin and 100 μg/mL streptomycin. HT29 and U251MG cell lines were grown in 50 μg/mL gentamycin (Gibco, BRL, Gaithersburg, Md.). DU145 cell line was maintained in 1% antibitic-antimycotic solution (Sigma, St. Louis, Mo.). The cell cultures were maintained at 37° C. in 5% CO2/95% humidified air. DuPro cells were obtained from M. Eileen Dolan, University of Chicago. All other cells are available from the American Type Culture Collection, Rockville, Md.
(§2) A conventional MTT assay was used to evaluate percent cell survival. Exponentially growing monolayer cells were plated in 96-well plates at a density of 500 cells per well and allowed to grow for 24 hours. Serial dilutions of the drugs were added to the wells. Six days after drug treatment, 25 μl of MTT solution (5 mg/ml) was added to each well and incubated for 4 hours at 37° C. Then 100 μl of lysis buffer (20% sodium dodecyl sulfate, 50% DMF, and 0.8% acetic acid, pH 4.7) was added to each well and incubated for an additional 22 hours. A microplate reader (“EMAX”-brand, Molecular Devices, Sunnyvale, Calif.) set at 570 nm was used to determine the optical density of the cultures. Results are expressed as a ratio of the optical density in drug-treated wells to the optical density in wells treated with vehicle only.
(§3) Using the protocols of Example 2, the porphyrin-polyamine conjugates were tested for activity in vitro in various cancer cell lines.

[2] = test system: human prostate cancer cells DU145; experiment: MTT assay, survival/growth of cultured human prostate cancer cells DU145; details: for pEC50: figure legends, survival of cultured DU145 cells, MTT, six days after drug treatment, read-out: ED50 (the source's name); for pIC50: read-out: concentration needed for 50% growth inhibition (ID50), Table 3, DU-145
Experimental: as §1, §2, §3

[3] = test system: human prostate cancer cells DUPRO; experiment: MTT assay, survival/growth of cultured human prostate cancer cells DUPRO; details: for pEC50: figure legends, survival of cultured DUPRO cells, MTT, six days after drug treatment, read-out: ED50 (the source's name); for pIC50: read-out: concentration needed for 50% growth inhibition (ID50), Table 3, DUPRO
Experimental: as §1, §2, §3

[4] = test system: human colon cancer cells HT29; experiment: MTT assay, survival/growth of cultured human colon cancer cells HT29; details: for pEC50: figure legends, survival of cultured HT29 cells, MTT, six days after drug treatment, read-out: ED50 (the source's name); for pIC50: read-out: concentration needed for 50% growth inhibition (ID50), Table 3, HT-29
Experimental: (§4) As shown in Table 3 and FIGS. 1–32, several novel conformationally restricted polyamine analogs were tested for anti-proliferative properties against cancer cells.
as §1, §2

[5] = test system: human lung cancer cells A549; experiment: MTT assay, survival/growth of cultured human lung cancer cells A549; details: for pEC50: figure legends, survival of cultured A549 cells, MTT, six days after drug treatment, read-out: ED50 (the source's name); for pIC50: read-out: concentration needed for 50% growth inhibition (ID50); for pIC50 / concentration needed for 50% growth inhibition (ID50): Table 3, A549
Experimental: as §4, §1, §2

[6] = test system: human breast cancer cells MCF7; experiment: MTT assay, survival/growth of cultured human breast cancer cells MCF7; details: for pEC50: figure legends, survival of cultured MCF7 cells, MTT, six days after drug treatment, read-out: ED50 (the source's name); for pIC50: read-out: concentration needed for 50% growth inhibition (ID50), Table 3, MCF7
Experimental: as §4, §1, §2

[7] = test system: human brain tumor cells U251 MG NCI; experiment: MTT assay, survival/growth of cultured human brain tumor cells U251 MG NCI; details: for pEC50: figure legends, survival of cultured U251 MG NCI cells, MTT, six days after drug treatment, read-out: ED50 (the source's name); for pIC50: Table 3, U251MG
Experimental: as §1, §2

[8] = Homo sapiens, U-251, read-out: concentration needed for 50% growth inhibition (ID50)
[9] = read-out: concentration needed for 50% growth inhibition (ID50)

Compound | pEC50 [2] | pEC50 [7] | pIC50 ([1]; Homo sapiens) | pIC50 ([2]; Homo sapiens) | pIC50 ([4]; Homo sapiens) | pIC50 ([5]; Homo sapiens) | pIC50 ([6]; Homo sapiens) | pIC50 [7, 8] | pIC50 [1] | pIC50 [2] | pIC50 [4] | also measured
CCNCCCNCCCNCCCNCC [BE-333, N1,N11-diethylnorspermine, reference compound] | 6.92 | 6.64 | – | – | – | – | – | – | – | – | – | pEC50 [1]: 6.47; pEC50 [3]: 6.05; pEC50 [4]: 6.52; pEC50 [5]: 6.52; pEC50 [6]: 5.43
CCNCCCNCCCCNCCCNCC [BE-343, N1,N12-bis(ethyl) spermine, reference compound] | 7.36 | 6.85 | – | – | – | – | – | – | – | – | – | pEC50 [1]: 6.62; pEC50 [4]: 6.22; pEC50 [5]: 6.70; pEC50 [6]: 6.30
CNCCCNC[C@H]1CC[C@H]1CNCCCNC [SL-11090] | – | – | < 4.51 | < 4.51 | < 4.51 | < 4.51 | < 4.51 | < 4.51 | – | – | – | –
CCNCCCNCC#CCNCCCNCC [SL-11091] | – | – | < 4.51 | 5.88 | < 4.51 | < 4.51 | < 4.51 | < 4.51 | – | – | – | pEC50 ([1]; Homo sapiens, PC-3, 144 h): < 4.51; pEC50 ([2]; Homo sapiens, DU-145, 144 h): 5.36; pEC50 ([4]; Homo sapiens, HT-29, 144 h): < 4.51; pEC50 ([5]; Homo sapiens, 144 h): < 4.51; pEC50 ([6]; Homo sapiens, 144 h): < 4.51; pEC50 ([7]; Homo sapiens, U-251, 144 h): < 4.51
CNCCCNCC#CCNCCCNC [SL-11092] | – | – | < 4.51 | 5.77 | < 4.51 | < 4.51 | < 4.51 | < 4.51 | – | – | – | –
CCNCCCNCc1ccccc1CNCCCNCC [SL-11094] | 4.81 | – | – | – | – | – | – | – | < 4.51 | 4.90 | 4.54 | concentration needed for 50% growth inhibition (ID50) [5]: >31250 nM; pIC50 [6]: < 4.51; pIC50 [7, 9]: < 4.51
CCNCCCCNC/C=C/CNCCCCNCC [SL-11101] | – | – | 5.11 | 6.66 | 5.28 | 6.82 | < 4.51 | 5.77 | – | – | – | pEC50 ([1]; Homo sapiens, PC-3, 144 h): 5.11; pEC50 ([2]; Homo sapiens, DU-145, 144 h): 6.66; pEC50 ([3]; Homo sapiens, 144 h): 6.07; pIC50 ([3]; Homo sapiens): 6.07; pEC50 ([5]; Homo sapiens, 144 h): 5.66; pEC50 ([6]; Homo sapiens, 144 h): < 4.51; pEC50 ([7]; Homo sapiens, U-251, 144 h): 5.77
CCNCCCCNC/C=C\CNCCCCNCC [SL-11102] | 7.52 | 6.82 | – | – | – | – | – | – | < 4.51 | 7.57 | 6.14 | pEC50 [1]: < 4.51; pEC50 [3]: 6.82; pIC50 [3]: 6.82; concentration needed for 50% growth inhibition (ID50) [5]: 12400 nM; pEC50 [5]: 6.82; pIC50 [6]: < 4.51; pIC50 [7, 9]: 6.82
CCNCCCCNCC#CCNCCCCNCC [SL-11103] | – | – | < 4.51 | 5.55 | 4.53 | < 4.51 | < 4.51 | 5.02 | – | – | – | pEC50 ([1]; Homo sapiens, PC-3, 144 h): < 4.51; pEC50 ([2]; Homo sapiens, DU-145, 144 h): 5.55; pEC50 ([5]; Homo sapiens, 144 h): 4.91; pEC50 ([6]; Homo sapiens, 144 h): < 4.51; pEC50 ([7]; Homo sapiens, U-251, 144 h): 5.02
CCNCCCCNCc1ccccc1CNCCCCNCC [SL-11104] | 5.03 | 4.83 | – | – | – | – | – | – | < 4.51 | 5.03 | 4.59 | concentration needed for 50% growth inhibition (ID50) [5]: 430 nM; pIC50 [6]: < 4.51; pIC50 [7, 9]: 4.83
CCNC/C=C\CNC/C=C\CNCCCCNCC [SL-11119] | 7.10 | – | – | – | – | – | – | – | < 4.51 | 7.10 | 6.01 | pEC50 [3]: 6.36; pIC50 [3]: 6.36
